Measured values: US20260176289A1, “SMALL MOLECULE INHIBITORS OF KRAS PROTEINS” (Merck Sharp & Dohme LLC, priority 2022, published 2026)
pIC50: −log10 of the molar value. Where two headings read alike, the source gives them in different places.

How the values were obtained:
KRAS-G13D = KRAS-G13D (Homo sapiens, UniProt P01116, G13D); experiment: SOS-catalyzed nucleotide exchange assay (Procedure A, TR-FRET), KRAS-G13D; format: biochemical; conditions: nucleotide exchange, Procedure A; read-out: KRAS G13D GNE IC50
SW620 cells = experiment: Cellular phospho-ERK assay, SW620 cells (homozygous KRAS-G12V); format: cell-based; conditions: Homo sapiens, read-out: SW620 pERK IC50
How it was run: (§1)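 ERK phosphorylation relative to total ERK is the endpoint, detected by AlphaScreen-based SureFire multiplex following a 2-hour treatment at 37 °C. Compounds are titrated 1:3 over ten points from 30 μM.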

[1] = target: KRAS-G12C (C51S/C80L/C118S) (Homo sapiens, UniProt P01116, C118S/C51S/C80L/G12C); experiment: SOS-catalyzed nucleotide exchange assay (Procedure A, TR-FRET), KRAS-G12C; format: biochemical; conditions: nucleotide exchange, Procedure A; read-out: KRAS G12C GNE IC50
How it was run: (§2)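 Signal ratio (520/495 nm, excitation 340 nm) reports Bodipy-GDP retention on biotinylated RAS after SOS-catalyzed exchange with 3 mM GTP. SOS was 40 nM, except 160 nM for G12V. Room-temperature exchange lasted 60 min (90 min for G12V), following a 60 min compound preincubation.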

MKN-1 cells = experiment: Cellular phospho-ERK assay, MKN-1 cells (amplified wild-type KRAS); format: cell-based; conditions: Homo sapiens, read-out: MKN1 pERK IC50
How it was run: as §1

PANC08.13 cells = experiment: Cellular phospho-ERK assay, PANC08.13 cells (homozygous KRAS-G12D); format: cell-based; conditions: Homo sapiens, PANC-08-13, KRAS-G12D, 2 hours, read-out: PANC-08.13 pERK IC50
How it was run: as §1

AsPC-1 cells = experiment: Cellular phospho-ERK assay, AsPC-1 cells (homozygous KRAS-G12D); format: cell-based; conditions: Homo sapiens, ASPC1, 2 h, read-out: AsPC1 pERK IC50
How it was run: as §1

KRAS-G12V = KRAS-G12V (Homo sapiens, UniProt P01116, G12V); experiment: SOS-catalyzed nucleotide exchange assay (Procedure A, TR-FRET), KRAS-G12V; format: biochemical; conditions: nucleotide exchange, read-out: KRAS G12V GNE IC50
How it was run: as §2

KRAS-G12D = KRAS-G12D (Homo sapiens, UniProt P01116, G12D); experiment: SOS-catalyzed nucleotide exchange assay (Procedure A, TR-FRET), KRAS-G12D; format: biochemical; conditions: nucleotide exchange, read-out: KRAS G12D GNE IC50
How it was run: as §2

HRAS = HRAS (Homo sapiens, UniProt P01112); experiment: SOS-catalyzed nucleotide exchange assay (Procedure A, TR-FRET), HRAS; format: biochemical; conditions: read-out: HRAS GNE IC50
Excerpt: (§3) Procedure for SOS-Catalyzed Nucleotide Exchange Assay for KRAS-WT, G12C/D/V, G13D, HRAS, and NRAS (Procedure A)
(§4) Recombinant KRAS-G12C protein used in this assay has an additional triple mutation (C51S/C80L/C118S). Whereas KRAS-WT, G12D/V, G13D, HRAS and NRAS are in context of their WT protein sequence background. Specifically, the SOS-catalyzed nucleotide exchange assay utilizes a preformed TR-FRET complex containing a specific biotinylated RAS protein (KRAS-WT, G12C/V/D, G13D, HRAS, NRAS; described above) with Bodipy-GDP, and Terbium-streptavidin. Compounds are preincubated with this complex for 60 minutes. Subsequently, recombinant human SOS protein and unlabeled GTP are added to initiate the exchange reaction. Small molecule inhibitors stabilize the Bodipy-GDP complex whereas the untreated protein rapidly exchanges Bodipy-GDP for unlabeled GTP resulting in reduced TR-FRET signal.
(§5) To assemble the preformed TR-FRET complexes, each biotinylated RAS protein is diluted to 2 μM in an EDTA Buffer (20 mM HEPES pH 7.5, 50 mM sodium chloride, 10 mM EDTA, and 0.01% Tween) and incubated at room temperature for one hour. This mixture is then further diluted to 90 nM in an Assay Buffer (20 mM HEPES pH 7.5, 150 mM sodium chloride, 10 mM magnesium chloride, and 0.005% Tween) containing 15 nM of Terbium-Streptavidin (Invitrogen, catalog #PV3577) and 900 nM of Bodipy-GDP (Invitrogen, catalog #G22360) and incubated at room temperature for six hours. It should be noted that this preformed TR-FRET complex for each of the RAS protein were made ahead of time, aliquoted and stored at −80° C. until the day of the experiment.
(§6) Each test compound (10 mM stock in DMSO) is diluted in DMSO to make a final-10-point, 3-fold dilution and is acoustically dispensed into a 384-well assay plate (Corning, catalog #3820) using an Echo 550 (Labcyte). Each well of the assay plate receives 3 μL of a specific 3×RAS preformed TR-FRET complex and 3 μL of Assay Buffer and is incubated at room temperature for 60 minutes (preincubation time). Each well then receives 3 μL of 3×recombinant human SOS protein and GTP (Sigma, G8877) in Assay Buffer and is incubated at room temperature for 30 minutes (G13D), 60 minutes (KRAS WT/G12C/D, H/NRAS) or 90 minutes for G12V. The final reaction in each well of 9 μL consists of 3 mM GTP, specific Ras and SOS proteins in the following concentrations: KRAS-G12C/SOS=3 nM/40 nM, KRAS-WT and G12D/SOS=1 nM/40 nM, KRAS-G12V/SOS=1.25 nM/160 nM. KRAS-G13D/SOS=1.25 nM/0 nM, HRAS and NRAS=1.25 nM/40 nM.
(§7) The time-resolved fluorescence resonance energy transfer (TR-FRET) signal is measured on an Envision (PerkinElmer) plate reader: Excitation filter=340 nm; emission 1=495 nm; emission2=520 nm; dichroic mirror=D400/D505; delay time=[…]. The signal of each well is determined as the ratio of the emission at 520 nm to that at 495 nm. Percent effect of each well is determined after normalization to control wells containing DMSO (no effect) or a saturating concentration of inhibitor (max effect). The apparent effect as a function of compound concentration is fit to a four-parameter logistic equation.

KRAS-WT = KRAS-WT (Homo sapiens, UniProt P01116); experiment: SOS-catalyzed nucleotide exchange assay (Procedure A, TR-FRET), KRAS-WT; format: biochemical; conditions: nucleotide exchange, read-out: KRAS WT GNE IC50
How it was run: as §2

NRAS = NRAS (Homo sapiens, UniProt P01111); experiment: SOS-catalyzed nucleotide exchange assay (Procedure A, TR-FRET), NRAS; format: biochemical; conditions: read-out: NRAS GNE IC50
Excerpt: as §3, §4, §5
as §6, with “The final reaction in each well of 9 μL consists of 3 mM GTP, specific Ras and SOS proteins in the following concentrations: KRAS-G12C/SOS=3 nM/40 nM, KRAS-WT and G12D/SOS=1 nM/40 nM, KRAS-G12V/SOS=1.25 nM/160 nM. KRAS-G13D/SOS=1.25 nM/0 nM, HRAS and NRAS=1.25 nM/40 nM.” left out
as §7, with “The apparent effect as a function of compound concentration is fit to a four-parameter logistic equation.” left out

[2] = amplified wild-type KRAS, 2 hours
[3] = SW-620, 2 hours compound incubation

Sequence of KRAS-WT (P01116 with tags, fused parts or gaps isoform P01116-2): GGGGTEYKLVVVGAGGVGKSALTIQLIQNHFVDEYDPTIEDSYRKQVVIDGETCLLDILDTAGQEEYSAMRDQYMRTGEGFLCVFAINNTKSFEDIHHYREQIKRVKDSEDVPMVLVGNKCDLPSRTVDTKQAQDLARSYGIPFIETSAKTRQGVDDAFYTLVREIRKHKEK
Sequence of KRAS-G12V (P01116 with tags, fused parts or gaps isoform P01116-2 G12V): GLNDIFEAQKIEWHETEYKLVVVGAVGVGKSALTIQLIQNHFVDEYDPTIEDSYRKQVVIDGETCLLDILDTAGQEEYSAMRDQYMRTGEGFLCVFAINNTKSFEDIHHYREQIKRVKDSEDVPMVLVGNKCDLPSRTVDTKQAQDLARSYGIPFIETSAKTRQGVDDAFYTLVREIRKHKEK
Sequence of KRAS-G13D (P01116 with tags, fused parts or gaps isoform P01116-2 G13D): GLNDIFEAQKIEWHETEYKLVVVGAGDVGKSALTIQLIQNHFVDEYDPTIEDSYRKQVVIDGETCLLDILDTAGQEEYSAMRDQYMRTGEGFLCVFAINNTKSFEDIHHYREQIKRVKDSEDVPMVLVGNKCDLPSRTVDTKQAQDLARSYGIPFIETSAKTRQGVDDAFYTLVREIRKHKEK
Sequence of HRAS (P01112 with tags, fused parts or gaps): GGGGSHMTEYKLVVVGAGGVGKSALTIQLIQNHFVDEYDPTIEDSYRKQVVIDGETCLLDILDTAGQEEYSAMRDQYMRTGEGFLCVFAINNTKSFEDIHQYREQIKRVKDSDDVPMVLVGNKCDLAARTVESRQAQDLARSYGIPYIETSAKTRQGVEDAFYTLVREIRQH
Sequence of KRAS-G12D (P01116 with tags, fused parts or gaps isoform P01116-2 G12D): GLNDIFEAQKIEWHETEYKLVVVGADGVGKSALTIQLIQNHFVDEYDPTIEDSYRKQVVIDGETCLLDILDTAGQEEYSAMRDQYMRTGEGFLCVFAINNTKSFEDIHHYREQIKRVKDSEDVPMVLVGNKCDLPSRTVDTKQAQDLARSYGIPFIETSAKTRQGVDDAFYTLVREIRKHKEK
Sequence of KRAS-G12C (C51S/C80L/C118S) (P01116 with tags, fused parts or gaps isoform P01116-2 G12C/C51S/C80L/C118S): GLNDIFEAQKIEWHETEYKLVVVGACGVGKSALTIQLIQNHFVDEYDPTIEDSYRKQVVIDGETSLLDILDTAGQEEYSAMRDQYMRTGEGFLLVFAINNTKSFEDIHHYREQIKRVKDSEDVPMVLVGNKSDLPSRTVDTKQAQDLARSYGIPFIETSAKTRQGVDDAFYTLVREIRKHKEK
Sequence of NRAS (P01111 with tags, fused parts or gaps): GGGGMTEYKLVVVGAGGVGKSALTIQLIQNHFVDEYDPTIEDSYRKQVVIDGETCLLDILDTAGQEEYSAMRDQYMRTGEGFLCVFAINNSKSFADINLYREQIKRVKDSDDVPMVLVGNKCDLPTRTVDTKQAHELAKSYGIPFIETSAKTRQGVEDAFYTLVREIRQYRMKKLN

pIC50 (KRAS-G13D) | pIC50 [1] | pIC50 (KRAS-G12V) | pIC50 (KRAS-G12D) | pIC50 (HRAS) | pIC50 (KRAS-WT) | pIC50 (SW620 cells; [3]) | pIC50 (MKN-1 cells; 2 hours compound incubation) | pIC50 (AsPC-1 cells; 2 hours compound incubation) | Structure (SMILES) | pIC50 (SW620 cells; SW-620, KRAS-G12V, 2 hours) | pIC50 (MKN-1 cells; [2]) | pIC50 (PANC08.13 cells) | pIC50 (AsPC-1 cells; KRAS-G12D, 2 hours) | pIC50 (NRAS)
7.89 | 7.06 | 7.83 | 8.32 | 5.86 | 7.73 | 7.40 | 7.60 | 7.03 | C[C@@]1(O)COCCN(c2nc(OC[C@]3(CN4C[C@H]5CCCO[C@H]5C4)CC3(F)F)nc3sc4c(-c5c(C6(F)CC6)c(Cl)cc6[nH]ncc56)nccc4c23)C1 [Ex-255, (6S)-4-(8-(6-chloro-5-(1-fluorocyclopropyl)-1H-indazol-4-yl)-2-(((R)-2,2-difluoro-1-(((4aR,7aR)-hexahydropyrano[2,3-c]pyrrol-6(2H)-yl)methyl)cyclopropyl)metho-xy)pyrido[4′,3′:4,5]thieno[2,3-d]pyrimidin-4-yl)-6-methyl-1,4-oxazepan-6-o1] |  |  |  |  | 
7.55 | 7.16 | 7.67 | 8.43 | 5.89 | 7.63 | 7.41 | 7.33 | 7.05 | C[C@@]1(O)COCCN(c2nc(OC[C@]3(CN4CC(CF)C4)CC3(F)F)nc3sc4c(-c5c(C6(F)CC6)c(Cl)cc6[nH]ncc56)nccc4c23)C1 [Ex-266, (6S)-4-(8-(6-chloro-5-(1-fluorocyclopropyl)-1H-indazol-4-yl)-2-(((R)-2,2-difluoro-1-((3-(fluoromethyl)azetidin-1-yl)methyl)cyclopropyl)metho-xy)pyrido[4′,3′:4,5]thieno[2,3-d]pyrimidin-4-yl)-6-methyl-1,4-oxazepan-6-ol] |  |  |  |  | 
8.00 | 7.63 | 8.09 | 8.49 | 5.37 | 8.25 | 7.62 | 7.73 | 7.63 | C[C@@]1(O)COCCN(c2nc(OC[C@@]34CCCN3C/C(=C\F)C4)nc3sc4c(-c5c(C6(F)CC6)c(Cl)cc6[nH]ncc56)nccc4c23)C1 [Ex-267, (6S)-4-(8-(6-chloro-5-(1-fluorocyclopropyl)-1H-indazol-4-yl)-2-(((S,Z)-2-(fluoromethylene)tetrahydro-1H-pyrrolizin-7a(5H)-yl)methoxy)pyrido[4′,3′:4,5]thieno[2,3-d]pyrimidin-4-yl)-6-methyl-1,4-oxazepan-6-ol] |  |  |  |  | 
7.99 | 7.06 | 8.24 | 8.61 | 5.38 | 8.24 | 7.56 | 7.51 | 7.25 | CN1CCC[C@@]2(COc3nc(N4CCOC[C@@](C)(O)C4)c4c(n3)sc3c(-c5c(C6(F)CC6)c(Cl)cc6[nH]ncc56)nccc34)CCC[C@@H]12 [Ex-268, (6S)-4-(8-(6-chloro-5-(1-fluorocyclopropyl)-1H-indazol-4-yl)-2-(((4aS,7aR)-1-methyloctahydro-4aH-cyclopenta[b]pyridin-4a-yl)methoxy)pyri-do[4′,3′:4,5]thi-eno[2,3-d]pyrimidin-4-yl)-6-methyl-1,4-oxazepan-6-ol] |  |  |  |  | 

Structure (SMILES) | pIC50 (KRAS-G13D) | pIC50 [1] | pIC50 (KRAS-G12V) | pIC50 (KRAS-G12D) | pIC50 (HRAS) | pIC50 (KRAS-WT) | pIC50 (SW620 cells; [3]) | pIC50 (MKN-1 cells; 2 hours compound incubation) | pIC50 (AsPC-1 cells; 2 hours compound incubation) | pIC50 (SW620 cells; SW-620, KRAS-G12V, 2 hours) | pIC50 (MKN-1 cells; [2]) | pIC50 (PANC08.13 cells) | pIC50 (AsPC-1 cells; KRAS-G12D, 2 hours) | pIC50 (NRAS)
Cc1cc2[nH]ncc2c(-c2nccc3c2sc2nc(OC[C@]4(CN(C)C)CC4(F)F)nc(N4CCOC[C@@](C)(O)C4)c23)c1C(F)(F)F [Ex-130, (6S)-4-(2-(((R)-1-((dimethylamino)-methyl)-2,2-di-fluorocyclopropyl)-methoxy)-8-(6-methyl-5-(trifluoro-methyl)-1H-indazol-4-yl)pyrido[4′,3′: 4,5]thieno[2,3-d]pyrimidin-4-yl)-6-methyl-1,4-oxaze-pan-6-ol] | 7.12 | 7.00 | 7.11 | 7.69 | 5.31 | 6.94 |  |  |  | 6.94 | 6.60 | 7.56 | 7.16 | 
CN(C)C[C@@]1(COc2nc(N3CCOC[C@@](C)(O)C3)c3c(n2)sc2c(-c4c(C5CC5)c(Cl)cc5[nH]ncc45)nccc23)CC1(F)F [Ex-131, (6S)-4-(8-(6-chloro-5-cyclopropyl-1H-indazol-4-yl)-2-(((R)-1-((dimeth-ylamino)methyl)-2,2-difluorocyclo-propyl)methoxy)-pyrido[4′,3′:4,5]thieno[2,3-d]pyr-imidin-4-yl)-6-methyl-1,4-oxaze-pan-6-ol] | 8.14 | 7.01 | 7.74 | 8.45 | 6.41 | 7.95 |  |  |  | 7.82 | 7.64 |  | 7.66 | 5.29
C[C@@]1(O)COCCN(c2nc(OC[C@@]34CCCN3C[C@H](F)C4)nc3sc4c(-c5c(C6CC6)c(Cl)cc6[nH]ncc56)nncc4c23)C1 [Ex-280, (6S)-4-(8-(6-chloro-5-cyclopropyl-1H-indazol-4-yl)-2-(((2R,7aS)-2-fluorotetrahydro-1H-pyrrolizin-7a(5H)-yl)methoxy)pyrimi-do[5′,4′:4,5]thieno[2,3-d]pyridazin-4-yl)-6-methyl-1,4-oxazepan-6-ol] | 8.31 | 7.21 | 7.91 | 8.34 | 5.06 | 8.02 |  |  |  | 6.97 | 7.21 |  | 7.11 | 
